According to PMC6684654 (Nature Communications, 2019):

Tests used:
NDM-1 E. coli XJ141015 = assay: MIC, broth microdilution; format: cell-based; conditions: MHB, 5 × 10^5 CFU/mL, 16 h, 37 °C
Text: (§1) MIC values were identified through microdilution in sterilized 96-well polypropylene microtiter plates according to the broth microdilution guideline of the Clinical and Laboratory Standards Institute[30]. The test medium was Mueller–Hinton broth (MHB), and the strain concentrations were adjusted to 5 × 10^5 CFU/mL.

NDM-1 E. coli XJ141026 = assay: MIC, broth microdilution; format: cell-based; conditions: MHB, 5 × 10^5 CFU/mL, 16 h, 37 °C
Text: as §1

NDM-1 E. coli XJ141047 = assay: MIC, broth microdilution; format: cell-based; conditions: MHB, 5 × 10^5 CFU/mL, 16 h, 37 °C
Text: as §1

[1] = test system: NDM-1 K. pneumoniae XJ155019; assay: MIC, broth microdilution; format: cell-based; conditions: MHB, 5 × 10^5 CFU/mL, 16 h, 37 °C
Text: as §1

[2] = test system: NDM-1 K. pneumoniae XJ155020; assay: MIC, broth microdilution; format: cell-based; conditions: MHB, 5 × 10^5 CFU/mL, 16 h, 37 °C
Text: as §1

[3] = test system: NDM-1 in E. coli XJ141026 culture supernatant; assay: NDM-1 release to culture supernatant (ELISA); format: cell-based; conditions: 0.8, 1.6, 3.2 μM; 6 or 12 h
Procedure: (§2) NDM-1 level in the filtered supernatant was measured using a specific ELISA kit (Shanghai Enzyme-linked Biotechnology Co., Ltd., China) and western blot analysis. Imipenem hydrolysis in the filtered supernatant at 6 h was monitored using a Biotek powerwave HT microplate spectrophotometer at 30 °C by determining the changes in absorbance at 300 nm, with a final substrate concentration of 100 μM.

[4] = test system: NDM-1 in E. coli XJ141026; assay: NDM-1 levels in supernatants and cell precipitates (western blot); format: cell-based; conditions: 0.8, 1.6, 3.2 μM; 6 h
Procedure: as §2
Soluble total protein concentration was determined and normalized with the Pierce BCA Protein Assay Kit (Thermo Fisher Scientific, Waltham, MA, USA). NDM-1 levels in the cells were measured by SDS-PAGE followed by western blot analysis. The primary antibody against NDM-1 was obtained from Detai Bio-Tech Co., Ltd. by immunizing New Zealand white rabbits with purified NDM-1 protein and further detected by horseradish peroxidase-conjugated anti-rabbit secondary antibody (Santa Cruz Biotechnology Inc., USA). Anti-GroEL antibody (Abcam, ab82592) was used to verify protein loading transferred to the membranes. To clearly normalize the levels of NDM-1, we investigated the two proteins on the same membrane. […] Protein band intensities were quantified from polyvinylidene difluoride membranes with ImageJ software.

[5] = test system: NDM-1 in E. coli XJ141026 supernatant; assay: Imipenem hydrolysis by culture supernatant; format: biochemical
Procedure: as §2

[6] = test system: NDM-1 in E. coli XJ141026 cell precipitates; assay: Imipenem hydrolysis by cell precipitates; format: biochemical; conditions: 100 μM imipenem (50 μL of 200 μM), 30 °C; treated 6 h
Procedure: The cell pellet was washed and resuspended in 20 mM Tris-HCl (pH = 7.4) to evaluate imipenem hydrolysis in bacterial cell precipitates. The concentrations were equalized by adjusting the absorbance values to OD600 = 0.3 in the same buffer. After 50 μL of the diluted bacterial cell suspension was transferred to a 96-well plate, 50 μL of 200 μM imipenem was added to measure the hydrolytic activity of NDM-1 and 50 μL of 20 mM Tris-HCl (pH = 7.4) was added as blank. The assays were monitored at 300 nm by using a Biotek powerwave HT microplate spectrophotometer at 30 °C. Data were corrected by subtracting the absorbance values obtained from the blanks.

apo-NDM-1 = apo-NDM-1 (Klebsiella pneumoniae, UniProt C7C422); format: binding; conditions: 50 mM HEPES pH 7.4, 0.05% Tween-20, RED-tris-NTA label, triplicate
Chain of apo-NDM-1 (C7C422 20-270, looked up, natural form): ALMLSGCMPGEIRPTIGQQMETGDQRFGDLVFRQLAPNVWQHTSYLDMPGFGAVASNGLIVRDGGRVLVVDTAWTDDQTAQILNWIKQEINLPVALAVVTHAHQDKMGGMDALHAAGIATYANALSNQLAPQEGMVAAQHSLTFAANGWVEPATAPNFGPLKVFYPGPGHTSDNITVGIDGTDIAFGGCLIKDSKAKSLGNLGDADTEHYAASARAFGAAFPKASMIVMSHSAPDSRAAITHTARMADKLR
Procedure: Briefly, apo-NDM-1 was derived from the purified NDM-1 obtained above by the two rounds of dialysis against 100 volumes of 10 mM HEPES, 200 mM NaCl, and 20 mM EDTA at pH = 7.4 over a 12 h period under stirring. EDTA was removed from the resulting apoenzyme solution by three dialysis steps against 200 volumes of 10 mM HEPES, 1 M NaCl, pH = 7.4, Chelex 100 and finally three dialysis steps against 200 volumes of 50 mM HEPES, 200 mM NaCl, pH = 7.4, and Chelex 100. All buffer solutions used to prepare the apoenzymes were treated by stirring with Chelex 100 (Bio-Rad). Zinc content in the apoprotein samples was checked using ICP-MS, and apo-NDM-1 contains less than 0.2 molar equivalents of zinc ion.
Apo-NDM-1 carrying a polyhistidine-tag (His-tag) was labeled with the RED-tris-NTA second-generation dye for 30 min at room temperature in the dark according to the manufacturer’s instructions (Monolith His-tag Labeling Kit RED-tris-NTA 2nd generation, Nanotemper Technologies GmbH). […] Then, 100 nM labeled NDM-1 protein was added to the serial dilution of the compound in a 1:1 volume ratio. After incubation for 30 min at room temperature, the samples were examined with Monolith NT.115 in Premium Capillaries (MO-K025) at medium MST power and 5% LED/excitation power. Kd values were determined using the Monolith Affinity Analysis Kd fit from triplicate experiments.

NDM-1 = NDM-1 (Klebsiella pneumoniae, UniProt C7C422); conditions: cited from earlier work
Chain of NDM-1 (C7C422 20-270, looked up, natural form): as above
Text: NDM-1 inhibitors, which antagonize multiple subtypes of metallo-β-lactamases and protect β-lactam antibiotics from being hydrolyzed, have been widely studied for synergistic application with β-lactam antibiotics to restore their bactericidal effects[15],[25],[26]. The most common mechanism of metallo-β-lactamase inhibitors is metal ion binding.

Compound	MIC (NDM-1 E. coli XJ141015) [µM]	MIC (NDM-1 E. coli XJ141026) [µM]	MIC (NDM-1 E. coli XJ141047) [µM]	MIC [1] [µM]	MIC [2] [µM]	NDM-1 release into solution [3]	NDM-1 level in cell precipitates [4]	hydrolysis of imipenem by supernatant ([5]; 100 μM imipenem, 30 °C, treated 6 h)	effect on NDM-1 activity ([5]; Discussion)	hydrolysis rate of precipitates [6]	Kd (apo-NDM-1) [µM]	NDM-1 inhibition in words (NDM-1)
Colistin	1.7	0.85	1.7	6.8	6.8	causing the release of NDM-1 into the solution in a time- and concentration-dependent manner	decreased	strong hydrolytic activity to imipenem	almost no effect on NDM-1 activity	consistently decreased with increasing thanatin or colistin concentration	61.7 ± 4.92	
N[C@H](CN[C@H](CN[C@@H](CC(=O)O)C(=O)O)C(=O)O)C(=O)O [aspergillomarasmine A]												inhibits the NDM-1 protease activity by chelating zinc ions from the active site
